Experimental findings from patent US20240368151A1, “NOVEL ERGOLINES AND METHODS OF TREATING MOOD DISORDERS” (priority 2021, published 2024) are described below.

In data set [1] the target is Alpha1A receptor (Homo sapiens (Human), UniProt P35348). Description: FLIPR Ca^2+ flux agonist assay at Alpha1A. Type of data set: cell-based. The protocol: Disclosed compounds were tested for agonist activity at several adrenergic (Alpha1A and Alpha2A) and dopamine (D1 and D2) receptor subtypes using Ca^2+ flux functional assays, with the results summarized in Table 6. Selectivity for the 5-HT2A receptor over these other targets varied depending on the specific target and compound.
(§1) Functional Assays at Adrenergic and Dopamine Receptors. Agonist activity at Alpha1A, Alpha2A, D1, and D2 receptors was determined using a FLIPR Ca^2+ flux assay at WuXi AppTec (Hong Kong) Limited according to their standard protocols. Briefly, stably transfected cells expressing the receptor of interest were grown and plated in a 384 well plate and incubated at 37° C. and 5% CO2 overnight. A solution of 250 mM probenecid in 1 mL FLIPR assay buffer was prepared fresh. This was combined with a fluorescent dye (Fluo-4 Direct™) to make a final assay concentration of 2.5 mM. Compounds were diluted 1:3.16 for 10 points and 750 nL was added to a 384 well compound plate using ECHO along with 30 μL assay buffer. The fluorescent dye was then added to the assay plate along with assay buffer to a final volume of 40 μL. The cell plate was incubated for 50 min at 37° C. and 5% CO2 and placed into the FLIPR Tetra along with the compound plate. 10 μL of references and compounds were then transferred from the compound plate into the cell plate and the fluorescent signal was read.

Data set [2] in a line: Metabolic stability in human liver microsomes (HLM). As to conditions: both sexes, human, pooled human liver microsomes, pH 7.4, NADPH. Type of data set: in vitro ADME. From the text:
HLM Stability. Pooled HLM from adult male and female donors (Corning 452117) were used.
For orientation: Liver microsomes are a subcellular fraction often used to study metabolism.

Data set [3] addresses human 5-HT2C receptor (Homo sapiens (Human), UniProt P28335). It is filed as cell-based. As to conditions: Ca^2+ flux.
Data set [4] concerns the target D1 receptor (Homo sapiens (Human), UniProt P21728). Nature of the data set: FLIPR Ca^2+ flux agonist assay at D1. Type of data set: cell-based. The protocol:
as §1, with “Compounds were diluted 1:3.16 for 10 points and 750 nL was added to a 384 well compound plate using ECHO along with 30 μL assay buffer.” left out

Data set [5] deals with Sprague Dawley rats. Description: Forced swim test (FST) in rats. It is filed as in vivo, rat. As to conditions: for Time Immobile / efficacy in FST relative to positive control desipramine, in words: rat FST; for Time Immobile: 23.5 hours after a single dose; for efficacy in FST relative to positive control desipramine, in words: 0.032 mg/kg. The protocol:
Compound 1 induced antidepressant-like effects in the forced swim test (FST) in rats with a 23.5-h pre-treatment time (FIG. 2).
Animals. Male Sprague Dawley rats, aged 9-10 weeks, were used in this experiment. Animals were housed in groups of 2 under controlled temperature (22±3° C.) and relative humidity (30-70%) conditions, with 12-hour light/dark cycles, and with ad libitum food and water. This study was carried out in strict accordance with the requirements of the Committee for the Purpose of Control and Supervision of Experiments on Animals (CPCSEA), India. All efforts were made to minimize suffering.
Drugs and Drug Administration. Compound 1 was synthesized as described above. Desipramine HCl was commercially obtained. The test compound, saline vehicle, and the positive control desipramine were administered subcutaneously (SC), with doses calculated based on the freebase. Normal saline was used as the vehicle. All compounds were administered at a volume of 5 mL/kg. The test compound and vehicle were administered 0.5 h after the start of the training swim (Swim 1) and 23.5 h before the test swim (Swim 2). Desipramine was administered 3 times, at 23.5 h, 5 h, and 1 h before the test swim (Swim 2), each time at a dose of 20 mg/kg. Group size was n=10 per treatment.
Forced Swim Test (FST). […] Rats were handled for about 2 min daily for the 5 days prior to the beginning of the experimental procedure. On the first day of the experiment (i.e., Day 0), post randomization, training swim sessions (Swim 1) were conducted between 12:00 and 18:00 h with all animals by placing rats in individual glass cylinders (46 cm tall×20 cm in diameter) containing 23-25° C. water 30 cm deep for 15 minutes. At the conclusion of Swim 1, animals were dried with paper towels, placed in heated drying cages for 15 minutes, and then returned to their home cages. Animals were then administered the appropriate drug or vehicle treatment(s), as described above. For clarity, a compound administration time of 23.5 h before Swim 2 means 0.5 h after the start of Swim 1 and 0.25 h after the completion of Swim 1 (i.e., immediately after return to the home cage). On Day 1 (i.e., 24 h after start of Swim 1), animals performed the test swim (Swim 2) for a period of 5 min but otherwise under the same conditions as Swim 1. During all swim sessions, the water was changed between each animal.
Behavioral scoring was conducted by observers who were blind to the treatment groups. Animals were continuously observed during Swim 2 and the total time spent engaging in the following behaviors was recorded: immobile, swimming, and climbing. A rat was judged to be immobile when it remained floating in the water without struggling and was making only those movements necessary to keep its head above water. A rat was judged to be swimming when it made active swimming motions, more than necessary to merely maintain its head above water (e.g., moving around in the cylinder). A rat was judged to be climbing when it made active movements with its forepaws in and out of the water, usually directed against the walls.
Statistical Analysis. The data points shown represent the mean±standard error of the mean (SEM). Analysis was performed using GraphPad Prism 6. Comparisons between groups were performed using the one-way analysis of variance (ANOVA), followed by Dunnett's test for comparisons to vehicle.
Additional disclosed compounds were tested in the forced swim test (FST) in rats according to the procedure described in Example 35.

Chain of D1 receptor (P21728 whole entry, looked up): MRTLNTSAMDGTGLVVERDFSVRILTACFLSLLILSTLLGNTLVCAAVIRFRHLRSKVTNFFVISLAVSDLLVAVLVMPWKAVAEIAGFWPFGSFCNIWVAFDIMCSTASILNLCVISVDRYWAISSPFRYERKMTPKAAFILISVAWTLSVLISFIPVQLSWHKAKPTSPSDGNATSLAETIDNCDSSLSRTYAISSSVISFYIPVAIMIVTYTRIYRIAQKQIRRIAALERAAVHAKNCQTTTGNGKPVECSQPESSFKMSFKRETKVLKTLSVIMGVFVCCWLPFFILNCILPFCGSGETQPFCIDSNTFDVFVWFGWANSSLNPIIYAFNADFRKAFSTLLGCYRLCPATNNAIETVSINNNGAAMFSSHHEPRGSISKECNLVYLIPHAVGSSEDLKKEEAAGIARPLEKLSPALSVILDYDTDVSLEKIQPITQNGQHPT
Chain of human 5-HT2C receptor (P28335 33-458 limits assumed): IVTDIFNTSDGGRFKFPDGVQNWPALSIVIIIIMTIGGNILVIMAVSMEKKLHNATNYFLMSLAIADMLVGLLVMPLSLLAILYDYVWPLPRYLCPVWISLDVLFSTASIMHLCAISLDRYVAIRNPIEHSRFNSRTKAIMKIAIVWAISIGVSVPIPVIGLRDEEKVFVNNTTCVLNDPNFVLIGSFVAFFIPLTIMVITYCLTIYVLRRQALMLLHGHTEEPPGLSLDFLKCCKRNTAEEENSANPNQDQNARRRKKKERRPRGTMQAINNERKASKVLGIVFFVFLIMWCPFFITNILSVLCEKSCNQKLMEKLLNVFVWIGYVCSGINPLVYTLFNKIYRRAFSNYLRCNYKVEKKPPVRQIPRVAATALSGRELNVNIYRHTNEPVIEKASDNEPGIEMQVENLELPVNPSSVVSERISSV
Chain of Alpha1A receptor (P35348 whole entry, looked up): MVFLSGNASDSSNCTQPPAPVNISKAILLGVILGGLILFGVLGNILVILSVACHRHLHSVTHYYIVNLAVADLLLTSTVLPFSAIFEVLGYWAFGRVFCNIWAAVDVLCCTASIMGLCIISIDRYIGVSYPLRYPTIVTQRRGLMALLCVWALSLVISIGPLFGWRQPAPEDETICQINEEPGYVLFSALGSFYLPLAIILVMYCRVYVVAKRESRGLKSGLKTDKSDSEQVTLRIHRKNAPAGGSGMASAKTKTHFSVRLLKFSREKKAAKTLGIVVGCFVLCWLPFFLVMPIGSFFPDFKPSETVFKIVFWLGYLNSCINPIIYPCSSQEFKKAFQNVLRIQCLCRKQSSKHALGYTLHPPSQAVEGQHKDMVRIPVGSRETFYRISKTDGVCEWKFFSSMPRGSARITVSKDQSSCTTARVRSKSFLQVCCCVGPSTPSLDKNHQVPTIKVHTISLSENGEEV

As for `CCN(CC)C(=O)[C@@H]1C=C2c3cccc4[nH]cc(c34)C[C@H]2N(CCc2ccccc2OC)C1` [Compound 11, (6aR,9R)-N,N-diethyl-7-(2-methoxyphenethyl)-4,6,6a,7,8,9-hexahydroindolo[4,3-fg]quinoline-9-carboxamide], in data set [1], the “Alpha 1A % Act @ Max Dose” value came to 28.23% and the “agonist efficacy at Alpha1A, in words” value is on record as “very low efficacy agonists”. In data set [2], the half-life at 1 μM is 2.37 min. Besides, the “5-HT2C % Act @ Max Dose” value in data set [3] was found to be 107.89%. Besides, in data set [4], the “D1 % Act @ Max Dose” value was 90.9%.
`CCN(CC)C(=O)[C@@H]1C=C2c3cccc4[nH]cc(c34)C[C@H]2N(CCCF)C1` [Compound 2, (6aR,9R)-N,N-diethyl-7-(3-fluoropropyl)-4,6,6a,7,8,9-hexahydroindolo[4,3-fg]quinoline-9-carboxamide]: the “Alpha 1A % Act @ Max Dose” value in data set [1] is 109.68%. The compound also displayed a half-life at 1 μM in data set [2] of 19.1 min. Further, the “5-HT2C % Act @ Max Dose” value in data set [3] is recorded as 105.48%. Besides, the “D1 % Act @ Max Dose” value in data set [4] amounted to 113.6%. For the same compound, the “Time Immobile” value in data set [5] (0.032 mg/kg SC) is reported as 76.44 s; in data set [5] (0.32 mg/kg SC) it was 41.33 s. The “efficacy in FST relative to positive control desipramine, in words” value in data set [5] (SC) was “as efficacious as the positive control desipramine”.
`CCN(CC)C(=O)[C@@H]1C=C2c3cccc4[nH]cc(c34)C[C@H]2N(Cc2ccccc2OC)C1` [Compound 10, (6aR,9R)-N,N-diethyl-7-(2-methoxybenzyl)-4,6,6a,7,8,9-hexahydroindolo[4,3-fg]quinoline-9-carboxamide]: in data set [1], the “Alpha 1A % Act @ Max Dose” value is given as 26.56% and the “agonist efficacy at Alpha1A, in words” value was “very low efficacy agonists”. In data set [2], this compound had a half-life at 1 μM of 7.3 min. Moreover, the “5-HT2C % Act @ Max Dose” value in data set [3] is given as 13.417%. Moreover, the “D1 % Act @ Max Dose” value in data set [4] was found to be 114.19%.
Turning to `CCCN1C[C@H](C(=O)N(CC)CC)C=C2c3cccc4[nH]cc(c34)C[C@H]21` [Compound 1, (6aR,9R)-N,N-diethyl-7-propyl-4,6,6a,7,8,9-hexahydroindolo[4,3-fg]quinoline-9-carboxamide], in data set [1], the “Alpha 1A % Act @ Max Dose” value stood at 80.6%. Also, the half-life at 1 μM in data set [2] came to 15.1 min. The “5-HT2C % Act @ Max Dose” value in data set [3] came to 106.79%. Also, the “D1 % Act @ Max Dose” value in data set [4] is recorded as 108.68%. Moreover, the “Time Immobile” value in data set [5] (0.032 mg/kg SC) amounted to 161.6 s; in data set [5] (0.32 mg/kg SC), 68.2 s. Besides, in data set [5] (rats, SC, 23.5 hours after a single administration), the “immobility time relative to vehicle control, in words” value is given as “reduced immobility time”.
Regarding `CCCN1C[C@H](C(=O)N2[C@@H](C)C[C@@H]2C)C=C2c3cccc4[nH]cc(c34)C[C@H]21` [Compound 4, ((2S,4S)-2,4-dimethylazetidin-1-yl)((6aR,9R)-7-propyl-4,6,6a,7,8,9-hexahydroindolo[4,3-fg]quinolin-9-yl)methanone], in data set [1], the “Alpha 1A % Act @ Max Dose” value was found to be 118.64%. The same compound gave a half-life at 1 μM in data set [2] of 10.6 min. Besides, the “5-HT2C % Act @ Max Dose” value in data set [3] was found to be 110.845%. Moreover, the “D1 % Act @ Max Dose” value in data set [4] came out at 113.6%. Further, the “Time Immobile” value in data set [5] (0.01 mg/kg SC) is recorded as 110.4 s; in data set [5] (0.032 mg/kg SC) it was 68.89 s; in data set [5] (0.32 mg/kg SC), 117.9 s. For the same compound, the “efficacy in FST relative to positive control desipramine, in words” value in data set [5] (SC) is “as efficacious as the positive control desipramine”.
For `CCCN1C[C@H](C(=O)N[C@H](C)CC)C=C2c3cccc4[nH]cc(c34)C[C@H]21` [Compound 3, (6aR,9R)-N-((R)-sec-butyl)-7-propyl-4,6,6a,7,8,9-hexahydroindolo[4,3-fg]quinoline-9-carboxamide], in data set [1], the “Alpha 1A % Act @ Max Dose” value was determined as 124.7%. The compound also showed a half-life at 1 μM in data set [2] of 4.2 min. In addition, the “5-HT2C % Act @ Max Dose” value in data set [3] was found to be 119.49%. Besides, in data set [4], the “D1 % Act @ Max Dose” value came to 121.3%. Further, the “Time Immobile” value is 137.5 s in data set [5] (0.032 mg/kg SC) and 50.4 s in data set [5] (0.32 mg/kg SC).
Consider `CCCN1C[C@H](C(=O)NC(CC)CC)C=C2c3cccc4[nH]cc(c34)C[C@H]21` [Compound 6, (6aR,9R)-N-(pentan-3-yl)-7-propyl-4,6,6a,7,8,9-hexahydroindolo[4,3-fg]quinoline-9-carboxamide], for which the half-life at 1 μM in data set [2] amounted to 1.61 min. For the same compound, the “5-HT2C % Act @ Max Dose” value in data set [3] is given as 116.77%. Besides, in data set [4], the “D1 % Act @ Max Dose” value is recorded as 93.13%. In addition, the figures for the “Time Immobile” value in data set [5] (0.032 mg/kg SC) and in data set [5] (0.32 mg/kg SC) were 93.6 s and 76.6 s, respectively.

What is called half-life is how long it takes for the measured level to halve. Read a low half-life as rapid decline.
